Key:
[1] = molecular target: T1, human PDE5 (Homo sapiens, UniProt O76074); assay: Inhibition of PDE5 activity (modified SPA test, human platelet lysate); format: biochemical; details: PDE5-containing human platelet lysate, 0.5 μM cGMP substrate, 37° C.
T1 construct: from tissue; host or cells: human platelets from fresh donor blood (10,000 g supernatant of sonified platelets)
Protocol: As a source for human PDE5, platelets were used. For that purpose, 150 ml fresh blood from human donors anticoagulated with citrate [final concentration 0.3% (w/v)] was centrifuged at 200 g for 10 min to obtain the so-called platelet-rich-plasma (PRP) as a supernatant. 1/10 volume of ACD solution (85 mM Na3-citrate, 111 mM D-glucose, 71 mM citric acid, pH 4.4) was added to 9/10 volume of PRP. After centrifugation (1,400 g, 10 min) the cell pellet was resuspended in 3 ml homogenization buffer (NaCl 140 mM, KCl 3.8 mM, EGTA 1 mM, MgCl2 1 mM, Tris-HCl 20 mM, beta-mercaptoethanol 1 mM, pH 8.2) plus protease-inhibitor mix giving rise to the final concentrations of 0.5 mM Pefablock (Roche), 10 μM Leupeptin, 5 μM Trypsininhibitor, 2 mM Benzamidin and 10 μM Pepstatin A. The suspension was sonified and thereafter centrifuged for 15 min at 10,000 g. The resulting supernatant (platelet lysate) was used for enzymatic testings.
PDE5A1 activity is inhibited by the compounds of the invention in a modified SPA (scintillation proximity assay) test, supplied by Amersham Biosciences (see procedural instructions “phosphodiesterase [3H]cAMP SPA enzyme assay, code TRKQ 7090”), carried out in 96-well microtitre plates (MTP's). The test volume is 100 μl and contains 20 mM Tris buffer (pH 7.4), 0.1 mg of BSA (bovine serum albumin)/ml, 5 mM Mg^2+, 1 μM motapizone, 10 nM PDE2 inhibitor BAY-60-7550, 0.5 μM cGMP (including about 50,000 cpm of [3H]cGMP as a tracer), 1 μl of the respective compound dilution in dimethylsulfoxide (DMSO) and sufficient PDE5-containing platelet lysat (10,000×g supernatant, see above) to ensure that 10-20 wt % of the cGMP is converted under the said experimental conditions. […] After a preincubation of 5 min at 37° C., the reaction was started by adding the substrate (cGMP) and the assay was incubated for a further 15 min; after that, it was stopped by adding SPA beads (50 μl). In accordance with the manufacturer's instructions, the SPA beads had previously been resuspended in water, but were then diluted 1:3 (v/v) in water; the diluted solution also contains 3 mM 8-methoxymethyl-3-isobutyl-1-methylxanthine (IBMX) to ensure a complete PDE activity stop. After the beads have been sedimented (>30 min), the MTP's are analyzed in commercially available luminescence detection devices. The corresponding IC50 values of the compounds for the inhibition of PDE activity are determined from the concentration-effect curves by means of non-linear regression.

| IC50 [1] | melting point | Compound |
| --- | --- | --- |
| 191 nM | 228 to 230 °C | CC1(C)Cc2nc(Cc3cccc([N+](=O)[O-])c3)c3[nH]c4ccccc4c3c2C(O)C1 (stereo not shown) [Example 56, 3,3-Dimethyl-6-(3-nitro-benzyl)-2,3,4,7-tetrahydro-1H-indolo[2,3-c]quinolin-1-ol] |
| 3.63 nM | 194 to 197 °C | O=C1CCCc2nc(Cc3ccc4c(c3)OCO4)c3[nH]c4ccccc4c3c21 [Example 18, 6-Benzo[1,3]dioxol-5-ylmethyl-2,3,4,7-tetrahydro-indolo[2,3-c]quinolin-1-one] |
| 89.1 nM | 117 to 119 °C | CC1(C)Cc2nc(Cc3ccc(OC(F)(F)F)cc3)c3[nH]c4ccccc4c3c2C(O)C1 (stereo not shown) [Example 53, 3,3-Dimethyl-6-(4-trifluoromethoxy-benzyl)-2,3,4,7-tetrahydro-1H-indolo[2,3-c]quinolin-1-ol] |
| 6.31 nM | 177 °C | COc1ccc(Cc2nc3c(c4c2[nH]c2ccccc24)C(=O)CCC3)cc1 [Example 2, 6-(4-Methoxy-benzyl)-2,3,4,7-tetrahydro-indolo[2,3-c]quinolin-1-one] |
| 1.26 nM | 192 to 195 °C | COc1ccc(Cc2nc3c(c4c2[nH]c2ccccc24)C(=O)CC(C)(C)C3)cc1F [Example 23, 6-(3-Fluoro-4-methoxy-benzyl)-3,3-dimethyl-2,3,4,7-tetrahydro-indolo[2,3-c]quinolin-1-one] |
| 355 nM | 138 to 140 °C | O=C1CCCc2nc(Cc3ccc([N+](=O)[O-])cc3)c3[nH]c4ccccc4c3c21 [Example 26, 6-(4-Nitro-benzyl)-2,3,4,7-tetrahydro-indolo[2,3-c]quinolin-1-one] |
| 19.5 nM | 205 °C | O=C1CCCc2nc(Cc3ccccc3)c3[nH]c4ccccc4c3c21 [Example 3, 6-Benzyl-2,3,4,7-tetrahydro-indolo[2,3-c]quinolin-1-one] |
| 148 nM | 112 to 114 °C | CC(C)c1ccc(Cc2nc3c(c4c2[nH]c2ccccc24)C(O)CC(C)(C)C3)cc1 (stereo not shown) [Example 58, 6-(4-Isopropyl-benzyl)-3,3-dimethyl-2,3,4,7-tetrahydro-1H-indolo[2,3-c]quinolin-1-ol] |
| 126 nM | 215 to 219 °C | CC1(C)CC(=O)c2c(nc(Cc3cccc(Br)c3)c3[nH]c4ccccc4c23)C1 [Example 21, 6-(3-Bromo-benzyl)-3,3-dimethyl-2,3,4,7-tetrahydro-indolo[2,3-c]quinolin-1-one] |
| 13.2 nM | 204 °C | COc1ccc(Cc2nc3c(c4c2[nH]c2ccccc24)C(O)CCC3)cc1 (stereo not shown) [Example 48, 6-(4-Methoxy-benzyl)-2,3,4,7-tetrahydro-1H-indolo[2,3-c]quinolin-1-ol] |
| 26.9 nM | 206 to 208 °C | CC1(C)Cc2nc(Cc3ccc(N)cc3)c3[nH]c4ccccc4c3c2C(O)C1 (stereo not shown) [Example 54, 6-(4-Amino-benzyl)-3,3-dimethyl-2,3,4,7-tetrahydro-1H-indolo[2,3-c]quinolin-1-ol] |
| 398 nM | 129 to 131 °C | CC1(C)Cc2nc(Cc3cc(F)cc(F)c3)c3[nH]c4ccccc4c3c2[C@H](O)C1 [Example 84, (R)-6-(3,5-Difluoro-benzyl)-3,3-dimethyl-2,3,4,7-tetrahydro-1H-indolo[2,3-c]quinolin-1-ol] |
| 5.5 nM | 212 °C | CC1(C)Cc2nc(Cc3ccc(O)cc3)c3[nH]c4ccccc4c3c2C(O)C1 (stereo not shown) [Example 51, 6-(4-Hydroxy-benzyl)-3,3-dimethyl-2,3,4,7-tetrahydro-1H-indolo[2,3-c]quinolin-1-ol] |
| 302 nM | 195 to 197 °C | CC(=O)Nc1ccc(Cc2nc3c(c4c2[nH]c2ccccc24)C(O)CCC3)cc1 (stereo not shown) [Example 69, N-[4-(1-Hydroxy-2,3,4,7-tetrahydro-1H-indolo[2,3-c]quinolin-6-ylmethyl)-phenyl]-acetamide] |
| 15.5 nM | 202 °C | COc1ccc(Cc2c3[nH]c4ccccc4c3c3c([n+]2[O-])CC(C)(C)CC3=O)cc1 [Example 78, 6-(4-Methoxy-benzyl)-3,3-dimethyl-5-oxy-2,3,4,7-tetrahydro-indolo[2,3-c]quinolin-1-one] |
| 2.95 nM | 182 to 184 °C | Cc1ccc(Cc2nc3c(c4c2[nH]c2ccccc24)C(=O)CC(C)(C)C3)cc1 [Example 25, 3,3-Dimethyl-6-(4-methyl-benzyl)-2,3,4,7-tetrahydro-indolo[2,3-c]quinolin-1-one] |
| 3.16 nM | 102 °C | COc1ccc(Cc2nc3c(c4c2[nH]c2ccccc24)C(=O)CC(C)C3)cc1 (stereo not shown) [Example 17, 6-(4-Methoxy-benzyl)-3-methyl-2,3,4,7-tetrahydro-indolo[2,3-c]quinolin-1-one] |
| 0.631 nM | 216 to 218 °C | CC1(C)CC(=O)c2c(nc(Cc3ccc(O)c(F)c3)c3[nH]c4ccccc4c23)C1 [Example 38, 6-(3-Fluoro-4-hydroxy-benzyl)-3,3-dimethyl-2,3,4,7-tetrahydro-indolo[2,3-c]quinolin-1-one] |
| 5.13 nM | 232 to 234 °C | CC1(C)CC(=O)c2c(nc(Cc3cccc(N)c3)c3[nH]c4ccccc4c23)C1 [Example 41, 6-(3-Amino-benzyl)-3,3-dimethyl-2,3,4,7-tetrahydro-indolo[2,3-c]quinolin-1-one] |
| 20.4 nM | 185 °C | COc1ccc(Cc2c3[nH]c4ccccc4c3c3c([n+]2[O-])CC(C)(C)CC3O)cc1 (stereo not shown) [Example 52, 6-(4-Methoxy-benzyl)-3,3-dimethyl-5-oxy-2,3,4,7-tetrahydro-1H-indolo[2,3-c]quinolin-1-ol] |
| 4.07 nM | 225 to 227 °C | CC1(C)Cc2nc(Cc3cccc(N)c3)c3[nH]c4ccccc4c3c2C(O)C1 (stereo not shown) [Example 57, 6-(3-Amino-benzyl)-3,3-dimethyl-2,3,4,7-tetrahydro-1H-indolo[2,3-c]quinolin-1-ol] |
| 5.37 nM | 146 °C | COc1ccc(Cc2nc3c(c4c2[nH]c2ccccc24)C(O)CC(C)(C)C3)cc1 (stereo not shown) [Example 47, 6-(4-Methoxy-benzyl)-3,3-dimethyl-2,3,4,7-tetrahydro-1H-indolo[2,3-c]quinolin-1-ol] |
| 0.398 nM | 199 to 200 °C | COc1ccc(Cc2nc3c(c4c2[nH]c2ccccc24)C(=O)CC(C)(C)C3)c(F)c1F [Example 31, 6-(2,3-Difluoro-4-methoxy-benzyl)-3,3-dimethyl-2,3,4,7-tetrahydro-indolo[2,3-c]quinolin-1-one] |
| 2.24 nM | 138 to 140 °C | COc1ccc(Cc2nc3c(c4c2[nH]c2ccccc24)C(=O)CC(C)(C)C3)c(F)c1 [Example 27, 6-(2-Fluoro-4-methoxy-benzyl)-3,3-dimethyl-2,3,4,7-tetrahydro-indolo[2,3-c]quinolin-1-one] |
| 22.9 nM | 236 to 238 °C | CC1(C)Cc2nc(Cc3ccc(NC(N)=O)cc3)c3[nH]c4ccccc4c3c2C(O)C1 (stereo not shown) [Example 70, [4-(1-Hydroxy-3,3-dimethyl-2,3,4,7-tetrahydro-1H-indolo[2,3-c]quinolin-6-ylmethyl)-phenyl]-urea] |
| 18.2 nM | 200 to 204 °C | CC1(C)CC(=O)c2c(nc(Cc3ccc(F)cc3)c3[nH]c4ccccc4c23)C1 [Example 28, 6-(4-Fluoro-benzyl)-3,3-dimethyl-2,3,4,7-tetrahydro-indolo[2,3-c]quinolin-1-one] |
| 2 nM | 125 to 127 °C | COc1ccc(Cc2nc3c(c4c2[nH]c2ccccc24)[C@@H](O)CCC3)cc1F [Example 85, (S)-6-(3-Fluoro-4-methoxy-benzyl)-2,3,4,7-tetrahydro-1H-indolo[2,3-c]quinolin-1-ol] |
| 4.9 nM | 184 to 192 °C (dec.) | CC1(C)CC(=O)c2c(nc(Cc3cccc(F)c3)c3[nH]c4ccccc4c23)C1 [Example 34, 6-(3-Fluoro-benzyl)-3,3-dimethyl-2,3,4,7-tetrahydro-indolo[2,3-c]quinolin-1-one] |
| 3.39 nM | 186 °C | COc1ccc(Cc2nc3c(c4c2[nH]c2ccccc24)CCC(C)C3)cc1 (stereo not shown) [Example 4, 6-(4-Methoxy-benzyl)-3-methyl-2,3,4,7-tetrahydro-1H-indolo[2,3-c]quinoline] |
